Where a SMILES comes first, the peptide text is derived from it. [ ]: non-standard residue; d: D form. Phe(4-NO2) = N[C@@H](Cc1ccc([N+](=O)[O-])cc1)C(=O)O; Oic = O=C(O)[C@@H]1C[C@@H]2CCCC[C@@H]2N1; Phe(4-Cl) = N[C@@H](Cc1ccc(Cl)cc1)C(=O)O; Phe(4-F) = N[C@@H](Cc1ccc(F)cc1)C(=O)O; Tic = O=C(O)[C@@H]1Cc2ccccc2CN1; Dap = NC[C@H](N)C(=O)O; βAla = NCCC(=O)O
What was measured:
[1] = system: Mycobacterium ranae (ATCC 110); conditions: ATCC 110
[2] = system: Salmonella typhimurium (ATCC 13311)
[3] = system: Staphylococcus aureus Methicillin/Gentamicin/Tetracycline Resistant (ATCC 33592); conditions: in vitro MIC; tested at 100, 30, 10, 3, 1, 0.3 and 0.1 μM in 1% DMSO

SMILES | Minimum Inhibitory Concentration Mycobacterium ranae [1] | other results
CC(=O)N[C@@H](CCCCN)C(=O)N[C@@H](CCCCN)C(=O)N[C@@H](CCCCN)C(=O)N[C@@H](CCCCN)C(=O)NCC(=O)N[C@@H](Cc1ccccc1)C(=O)N1Cc2ccccc2C[C@H]1C(=O)N1[C@H](C(=O)NCC(=O)N[C@@H](CCCCN)C(=O)N2Cc3ccccc3C[C@H]2C(=O)N2[C@H](C(=O)NCC(=O)N[C@@H](Cc3ccccc3)C(=O)N3Cc4ccccc4C[C@H]3C(=O)N3[C@H](C(=O)NCC(=O)N[C@@H](CCCCN)C(=O)N4Cc5ccccc5C[C@H]4C(N)=O)C[C@@H]4CCCC[C@@H]43)C[C@@H]3CCCC[C@@H]32)C[C@@H]2CCCC[C@@H]21 [FBAB-1Gq, Ac-KKKK-GF-Tic-Oic-GK-Tic-Oic-GF-Tic-Oic-GK-Tic-CONH2] (Ac-KKKKGF[Tic][Oic]GK[Tic][Oic]GF[Tic][Oic]GK[Tic]-NH2) | 3 µM | –
CC(=O)NCCC(=O)N[C@@H](Cc1ccc(F)cc1)C(=O)N1Cc2ccccc2C[C@H]1C(=O)N1[C@H](C(=O)NCCC(=O)N[C@@H](CN)C(=O)N2Cc3ccccc3C[C@H]2C(=O)N2[C@H](C(=O)NCCC(=O)N[C@@H](Cc3ccc(F)cc3)C(=O)N3Cc4ccccc4C[C@H]3C(=O)N3[C@H](C(=O)NCCC(=O)N[C@@H](CN)C(=O)N4Cc5ccccc5C[C@H]4C(=O)N[C@@H](CN)C(=O)N[C@@H](CN)C(=O)N[C@@H](CN)C(=O)N[C@@H](CN)C(N)=O)C[C@@H]4CCCC[C@@H]43)C[C@@H]3CCCC[C@@H]32)C[C@@H]2CCCC[C@@H]21 [FBAB-1Gw, Ac-βAla-Fpa-Tic-Oic-βAla-Dpr-Tic-Oic-βAla-Fpa-Tic-Oic-βAla-Dpr-Tic-Dpr-Dpr-Dpr-Dpr-CONH2] (Ac-[βAla][Phe(4-F)][Tic][Oic][βAla][Dap][Tic][Oic][βAla][Phe(4-F)][Tic][Oic][βAla][Dap][Tic][Dap][Dap][Dap][Dap]-NH2) | 100 µM | selectivity for Salmonella typhimurium over Mycobacterium ranae ([2]; in vitro): 33 fold; selectivity for Salmonella typhimurium over Staphylococcus aureus ME/GM/TC resistant ([2]; in vitro): 10 fold
CC(=O)NCC(=O)N[C@H](Cc1ccccc1)C(=O)N1Cc2ccccc2C[C@H]1C(=O)N1[C@H](C(=O)NCC(=O)N[C@@H](CCCCN)C(=O)N2Cc3ccccc3C[C@H]2C(=O)N2[C@H](C(=O)NCC(=O)N[C@H](Cc3ccccc3)C(=O)N3Cc4ccccc4C[C@H]3C(=O)N3[C@H](C(=O)NCC(=O)N[C@@H](CCCCN)C(=O)N4Cc5ccccc5C[C@H]4C(=O)N[C@@H](CCCCN)C(=O)N[C@@H](CCCCN)C(=O)N[C@@H](CCCCN)C(=O)N[C@@H](CCCCN)C(N)=O)C[C@@H]4CCCC[C@@H]43)C[C@@H]3CCCC[C@@H]32)C[C@@H]2CCCC[C@@H]21 [FKAB-1G2, Ac-G-dF-Tic-Oic-GK-Tic-Oic-G dF-Tic-Oic-GK-Tic-KKKK-CONH2] (Ac-G[dF][Tic][Oic]GK[Tic][Oic]G[dF][Tic][Oic]GK[Tic]KKKK-NH2) | 10 µM | –
CC(=O)NCC(=O)N[C@@H](Cc1ccccc1)C(=O)N1Cc2ccccc2C[C@H]1C(=O)N1[C@H](C(=O)NCC(=O)N[C@H](CCCCN)C(=O)N2Cc3ccccc3C[C@H]2C(=O)N2[C@H](C(=O)NCC(=O)N[C@@H](Cc3ccccc3)C(=O)N3Cc4ccccc4C[C@H]3C(=O)N3[C@H](C(=O)NCC(=O)N[C@H](CCCCN)C(=O)N4Cc5ccccc5C[C@H]4C(=O)N[C@@H](CCCCN)C(=O)N[C@@H](CCCCN)C(=O)N[C@@H](CCCCN)C(=O)N[C@@H](CCCCN)C(N)=O)C[C@@H]4CCCC[C@@H]43)C[C@@H]3CCCC[C@@H]32)C[C@@H]2CCCC[C@@H]21 [FKAB-1G3, Ac-GF-Tic-Oic-G-dK-Tic-Oic-GF-Tic-Oic-G-dK-Tic-KKKK-CONH2] (Ac-GF[Tic][Oic]G[dK][Tic][Oic]GF[Tic][Oic]G[dK][Tic]KKKK-NH2) | 10 µM | –
CC(=O)NCC(=O)N[C@@H](Cc1ccccc1)C(=O)N1Cc2ccccc2C[C@H]1C(=O)N1Cc2ccccc2C[C@H]1C(=O)NCC(=O)N[C@@H](CCCCN)C(=O)N1Cc2ccccc2C[C@H]1C(=O)N1Cc2ccccc2C[C@H]1C(=O)NCC(=O)N[C@@H](Cc1ccccc1)C(=O)N1Cc2ccccc2C[C@H]1C(=O)N1Cc2ccccc2C[C@H]1C(=O)NCC(=O)N[C@@H](CCCCN)C(=O)N1Cc2ccccc2C[C@H]1C(=O)N[C@@H](CCCCN)C(=O)N[C@@H](CCCCN)C(=O)N[C@@H](CCCCN)C(=O)N[C@@H](CCCCN)C(N)=O [FKAB-1Gg2, Ac-GF-Tic-Tic-GK-Tic-Tic-GF-Tic-Tic-GK-Tic-KKKK-CONH2] (Ac-GF[Tic][Tic]GK[Tic][Tic]GF[Tic][Tic]GK[Tic]KKKK-NH2) | 10 µM | –
CC(=O)NCC(=O)N[C@@H](Cc1ccc(Cl)cc1)C(=O)N1Cc2ccccc2C[C@H]1C(=O)N1[C@H](C(=O)NCC(=O)N[C@@H](CCCCN)C(=O)N2Cc3ccccc3C[C@H]2C(=O)N2[C@H](C(=O)NCC(=O)N[C@@H](Cc3ccc(Cl)cc3)C(=O)N3Cc4ccccc4C[C@H]3C(=O)N3[C@H](C(=O)NCC(=O)N[C@@H](CCCCN)C(=O)N4Cc5ccccc5C[C@H]4C(=O)N[C@@H](CCCCN)C(=O)N[C@@H](CCCCN)C(=O)N[C@@H](CCCCN)C(=O)N[C@@H](CCCCN)C(N)=O)C[C@@H]4CCCC[C@@H]43)C[C@@H]3CCCC[C@@H]32)C[C@@H]2CCCC[C@@H]21 [FKAB-1Go1, Ac-G-Cph-Tic-Oic-GK-Tic-Oic-G-Cph-Tic-Oic-GK-Tic-KKKK-CONH2] (Ac-G[Phe(4-Cl)][Tic][Oic]GK[Tic][Oic]G[Phe(4-Cl)][Tic][Oic]GK[Tic]KKKK-NH2) | 10 µM | Minimum Inhibitory Concentration Salmonella typhimurium ([2]; in vitro MIC, tested at 100, 30, 10, 3, 1, 0.3 and 0.1 μM in 1% DMSO): not active
CC(=O)NCC(=O)N[C@@H](Cc1ccc([N+](=O)[O-])cc1)C(=O)N1Cc2ccccc2C[C@H]1C(=O)N1[C@H](C(=O)NCC(=O)N[C@@H](CCCCN)C(=O)N2Cc3ccccc3C[C@H]2C(=O)N2[C@H](C(=O)NCC(=O)N[C@@H](Cc3ccc([N+](=O)[O-])cc3)C(=O)N3Cc4ccccc4C[C@H]3C(=O)N3[C@H](C(=O)NCC(=O)N[C@@H](CCCCN)C(=O)N4Cc5ccccc5C[C@H]4C(=O)N[C@@H](CCCCN)C(=O)N[C@@H](CCCCN)C(=O)N[C@@H](CCCCN)C(=O)N[C@@H](CCCCN)C(N)=O)C[C@@H]4CCCC[C@@H]43)C[C@@H]3CCCC[C@@H]32)C[C@@H]2CCCC[C@@H]21 [FKAB-1Go2, Ac-G-Nph-Tic-Oic-GK-Tic-Oic-G-Nph-Tic-Oic-GK-Tic-KKKK-CONH2] (Ac-G[Phe(4-NO2)][Tic][Oic]GK[Tic][Oic]G[Phe(4-NO2)][Tic][Oic]GK[Tic]KKKK-NH2) | 10 µM | –
CC(=O)NCC(=O)N[C@@H](Cc1ccccc1)C(=O)N1Cc2ccccc2C[C@H]1C(=O)N1[C@H](C(=O)NCC(=O)N[C@@H](CN)C(=O)N2Cc3ccccc3C[C@H]2C(=O)N2[C@H](C(=O)NCC(=O)N[C@@H](Cc3ccccc3)C(=O)N3Cc4ccccc4C[C@H]3C(=O)N3[C@H](C(=O)NCC(=O)N[C@@H](CN)C(=O)N4Cc5ccccc5C[C@H]4C(=O)N[C@@H](CN)C(=O)N[C@@H](CN)C(=O)N[C@@H](CN)C(=O)N[C@@H](CN)C(N)=O)C[C@@H]4CCCC[C@@H]43)C[C@@H]3CCCC[C@@H]32)C[C@@H]2CCCC[C@@H]21 [FKAB-1Gs, Ac-GF-Tic-Oic-G-Dpr-Tic-Oic-GF-Tic-Oic-G-Dpr-Tic-Dpr-DprDpr-Dpr-CONH2] (Ac-GF[Tic][Oic]G[Dap][Tic][Oic]GF[Tic][Oic]G[Dap][Tic][Dap][Dap][Dap][Dap]-NH2) | 100 µM | Minimum Inhibitory Concentration Staphylococcus aureus ME/GM/TC resistant [3]: 10 μm μM
CC(=O)NCCC(=O)N[C@@H](Cc1ccc(F)cc1)C(=O)N1Cc2ccccc2C[C@H]1C(=O)N1[C@H](C(=O)NCCC(=O)N[C@@H](CCCCN)C(=O)N2Cc3ccccc3C[C@H]2C(=O)N2[C@H](C(=O)NCCC(=O)N[C@@H](Cc3ccc(F)cc3)C(=O)N3Cc4ccccc4C[C@H]3C(=O)N3[C@H](C(=O)NCCC(=O)N[C@@H](CCCCN)C(=O)N4Cc5ccccc5C[C@H]4C(=O)N[C@@H](CN)C(=O)N[C@@H](CN)C(=O)N[C@@H](CN)C(=O)N[C@@H](CN)C(N)=O)C[C@@H]4CCCC[C@@H]43)C[C@@H]3CCCC[C@@H]32)C[C@@H]2CCCC[C@@H]21 [FKAB-1Gv, Ac-βAla-Fpa-Tic-Oic-βAla-K-Tic-Oic-βAla-Fpa-Tic-Oic-βAla-K-Tic-Dpr-Dpr-Dpr-Dpr-CONH2] (Ac-[βAla][Phe(4-F)][Tic][Oic][βAla]K[Tic][Oic][βAla][Phe(4-F)][Tic][Oic][βAla]K[Tic][Dap][Dap][Dap][Dap]-NH2) | 30 µM | –
CC(=O)NCC(=O)N[C@@H](Cc1ccccc1)C(=O)N1[C@H](C(=O)N2Cc3ccccc3C[C@H]2C(=O)NCC(=O)N[C@@H](CCCCN)C(=O)N2[C@H](C(=O)N3Cc4ccccc4C[C@H]3C(=O)NCC(=O)N[C@@H](Cc3ccccc3)C(=O)N3[C@H](C(=O)N4Cc5ccccc5C[C@H]4C(=O)NCC(=O)N[C@@H](CCCCN)C(=O)N4Cc5ccccc5C[C@H]4C(=O)N[C@@H](CCCCN)C(=O)N[C@@H](CCCCN)C(=O)N[C@@H](CCCCN)C(=O)N[C@@H](CCCCN)C(N)=O)C[C@@H]4CCCC[C@@H]43)C[C@@H]3CCCC[C@@H]32)C[C@@H]2CCCC[C@@H]21 [FKABB-1G1, Ac-GF-Oic-Tic-GK-Oic-Tic-GF-Oic-Tic-GK-Tic-KKKK-CONH2] (Ac-GF[Oic][Tic]GK[Oic][Tic]GF[Oic][Tic]GK[Tic]KKKK-NH2) | 30 µM | –
CC[C@H](C)[C@H](NC(=O)CN)C(=O)NCC(=O)N[C@@H](CCCCN)C(=O)N[C@@H](Cc1ccccc1)C(=O)N[C@@H](CC(C)C)C(=O)N[C@@H](Cc1c[nH]cn1)C(=O)N[C@@H](CO)C(=O)N[C@@H](C)C(=O)NCC(=O)N[C@@H](CCCCN)C(=O)N[C@@H](Cc1ccccc1)C(=O)NCC(=O)N[C@@H](CCCCN)C(=O)N[C@@H](C)C(=O)N[C@@H](Cc1ccccc1)C(=O)N[C@H](C(=O)NCC(=O)N[C@@H](CCC(=O)O)C(=O)N[C@H](C(=O)N[C@@H](CCSC)C(=O)N[C@@H](CCCCN)C(=O)N[C@@H](CO)C(=O)O)[C@@H](C)CC)C(C)C [Magainin I, magainin I, reference compound] (H-GIGKFLHSAGKFGKAFVGEIMKS-OH; N-terminus and C-terminus assumed) | – | Minimum Inhibitory Concentration Staphylococcus aureus ME/GM/TC resistant [3]: > 100 µM

Reference: patent publication US20120197004A1, “NOVEL ANTI-MICROBIAL PEPTIDOMIMETIC COMPOUNDS AND METHODS TO CALCULATE ANTI-MICROBIAL ACTIVITY” (priority 2006, published 2012)
